Test results reported in patent publication US4866069A, “Substance 4181-2 and its derivatives having anti-leukemia activity” (Taiho Pharmaceutical Company, Limited, priority 1986, dated 1989).
Converted amounts (≈) assume the structure as drawn.

Experiments:
leukemia P388 cells = assay: Antitumor activity: life span-prolonging effect in mouse leukemia; format: in vivo, BDF1 mice; conditions: for % Increase in survival time / Mean survival time: 3 mg/kg intraperitoneally, day after i.p. injection of 1×10^6 P388 cells, BDF1 mice; for % Increase in survival time: ((D/D0)-1)×100 vs untreated; for Mean survival time: untreated control 9.3 ± 0.8 days
Procedure: The antitumor activity of Substance 4181-2 and its derivatives was evaluated in terms of the increase in life span. One ×10^6 of leukemia P388 cells were intraperitoneally injected to BDF1 mice. Each group consisted of 6 mice. On the following day, each of Compounds 1-4, suspended in 0.2% solution of Tween 80 in physiological saline, was administered intraperitoneally and the survival time in days was determined. The percent increase in survival time was calculated by means of the following formula.
Percent increase in survival time=((D/D0)-1)×100 wherein D0 stands for the mean survival time (days) in the untreated group and D stands for the mean survival time (days) in the treated group.

[1] = Acute toxicity study (up-and-down method); design: species or system mice of ddY strain; conditions: mouse, in vivo, ip, intraperitoneal, male ddY mice, 25 g
Procedure: Male mice of ddY strain (body weight 25 g) were used. Each of Compounds 1-4 was suspended in 0.2% solution of Tween 80 in physiological saline and administered intraperitoneally to the animals. The LD50 values (mg/kg) were determined by the up-and-down method.

[2] = test system: microorganisms including gram-positive bacteria, gram-negative bacteria and fungi; assay: Antimicrobial activity (summary statement); format: cell-based
Procedure: (§1) The antibacterial and antifungal spectra of Substance 4181-2 were investigated. Using nutrient agar medium for gram-positive and gram-negative bacteria and Sabouraud's agar medium for fungi, the minimal inhibitory concentration (MIC) was determined by a two-fold serial dilution method.

[3] = test system: Candida albicans IFO 1061; assay: Antimicrobial spectrum (MIC), two-fold serial dilution; format: cell-based; conditions: IFO1061, Sabouraud's agar medium
Procedure: as §1

[4] = test system: Pseudomonus fluorescens IFO 12180; assay: as above; format: cell-based; conditions: nutrient agar medium
Procedure: as §1

[5] = test system: Saccharomyces delbrueckii IAM 12236; assay: as above; format: cell-based; conditions: Torulaspora delbrueckii, IAM12236, Sabouraud's agar medium
Procedure: as §1

[6] = test system: Aspergillus niger IFO 6341; assay: as above; format: cell-based; conditions: IFO6341, Sabouraud's agar medium
Procedure: as §1

[7] = test system: Penicillium notatum IFO 4640; assay: as above; format: cell-based; conditions: Penicillium chrysogenum, IFO4640, Sabouraud's agar medium
Procedure: as §1

[8] = test system: Trichophyton mentagrophytes IFO 5466; assay: as above; format: cell-based; conditions: IFO5466, Sabouraud's agar medium
Procedure: as §1

[9] = test system: Escherichia coli B IFO 13168; assay: as above; format: cell-based; conditions: IFO13168, nutrient agar medium
Procedure: as §1

[10] = test system: Klebsiella pneumoniae ATCC 10031; assay: as above; format: cell-based; conditions: ATCC10031, nutrient agar medium
Procedure: as §1

[11] = test system: Bacillus subtilis ATCC 6633; assay: as above; format: cell-based; conditions: ATCC6633, nutrient agar medium
Procedure: as §1

[12] = test system: Proteus vulgalis IFO 3045; assay: as above; format: cell-based; conditions: nutrient agar medium
Procedure: as §1

[13] = test system: Micrococcus flavus ATCC 10240; assay: as above; format: cell-based; conditions: ATCC10240, nutrient agar medium
Procedure: as §1

[14] = test system: Staphylococcus aureus 209P; assay: as above; format: cell-based; conditions: nutrient agar medium
Procedure: as §1

[15] = literature statement; cited from earlier work

SMILES | % Increase in survival time (leukemia P388 cells) [%] | Mean survival time (leukemia P388 cells) [days] | LD50 [1] [mg/kg] | antimicrobial activity (in words) [15] | further results
COc1cc2oc3c(c(=O)c2cc1O)C(=O)c1c(ccc2cc4c(c(O)c12)C(=O)N1CCOC1(C)C4)C3=O (stereo not shown) [Compound 1, Substance 4181-2] | 94 | 18.0 ± 1.4 | ≥ 40 | – | antitumor activity (in words) (leukemia P388 cells; summary statement): excellent antitumor activity; antimicrobial spectrum (in words) [2]: broad antimicrobial spectrum; MIC [3]: 0.39 µg/mL (≈ 0.76 µM); MIC [4]: 0.2 µg/mL (≈ 0.39 µM); MIC [5]: 1.56 µg/mL (≈ 3.04 µM); MIC [6]: 3.13 µg/mL (≈ 6.1 µM); MIC [7]: 1.56 µg/mL (≈ 3.04 µM); MIC [8]: 0.78 µg/mL (≈ 1.52 µM); MIC [9]: 1.56 µg/mL (≈ 3.04 µM); MIC [10]: 3.13 µg/mL (≈ 6.1 µM); MIC [11]: 0.2 µg/mL (≈ 0.39 µM); MIC [12]: 0.39 µg/mL (≈ 0.76 µM); MIC [13]: 0.2 µg/mL (≈ 0.39 µM); MIC [14]: 0.2 µg/mL (≈ 0.39 µM)
COc1cc2oc3c(c(=O)c2cc1OC(C)=O)C(=O)c1c(ccc2cc4c(c(OC(C)=O)c12)C(=O)N1CCOC1(C)C4)C3=O (stereo not shown) [Compound 2, diacetyl derivative of Substance 4181-2] | 59 | 14.8 ± 0.8 | ≥ 40 | – | –
COc1cc2oc3c(c(=O)c2cc1OC)C(=O)c1c(ccc2cc4c(c(O)c12)C(=O)N1CCOC1(C)C4)C3=O (stereo not shown) [Compound 3, monomethyl derivative of Substance 4181-2] | 63 | 15.2 ± 1.7 | ≥ 40 | – | –
COc1cc2oc3c(c(=O)c2cc1OC)C(=O)c1c(ccc2cc4c(c(OC(C)=O)c12)C(=O)N1CCOC1(C)C4)C3=O (stereo not shown) [Compound 4, monomethyl monoacetyl derivative of Substance 4181-2] | 53 | 14.2 ± 0.8 | ≥ 40 | – | –
COc1cc2oc3c(O)c4ccc5cc6c(c(O)c5c4c(O)c3c(=O)c2cc1OC)C(=O)N1CCOC1(C)C6 (stereo not shown) [cervinomycin A1] | – | – | – | have antimicrobial activity | –
COc1cc2oc3c(c(=O)c2cc1OC)C(=O)c1c(ccc2cc4c(c(O)c12)C(=O)N1CCOC1(C)C4)C3=O (stereo not shown) [cervinomycin A2] | – | – | – | have antimicrobial activity | –
